Data taken from PubChem BioAssay (NCI).
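Following 48 hours of exposure in 96-well plates, responses at five concentrations were used to interpolate endpoints linearly. Here, GI50 denotes the concentration required for 50% inhibition of growth. TGI: concentration producing complete growth inhibition.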

Assays:
Assay in all cases: NCI-60 cell line screen, 48 h
HCT-15 colon = system: HCT-15 colon
TK-10 renal = system: TK-10 renal
SF-539 CNS = system: SF-539 CNS
NCI/ADR-RES ovarian = system: NCI/ADR-RES ovarian
DU-145 prostate = system: DU-145 prostate
HOP-62 NSCLC = system: HOP-62 NSCLC
NCI-H226 lung = system: NCI-H226 lung
U251 CNS = system: U251 CNS
UO-31 renal = system: UO-31 renal
K-562 leukemia = system: K-562 leukemia

Structure (SMILES)	TGI (HCT-15 colon)	TGI (TK-10 renal)	TGI (SF-539 CNS)	TGI (NCI/ADR-RES ovarian)	TGI (DU-145 prostate)	TGI (HOP-62 NSCLC)	TGI (NCI-H226 lung)	TGI (U251 CNS)	TGI (UO-31 renal)	TGI (K-562 leukemia)	GI50 (HCT-15 colon)	GI50 (TK-10 renal)	GI50 (SF-539 CNS)	GI50 (NCI/ADR-RES ovarian)	GI50 (DU-145 prostate)	GI50 (HOP-62 NSCLC)	GI50 (NCI-H226 lung)	GI50 (U251 CNS)	GI50 (UO-31 renal)	GI50 (K-562 leukemia)
CC(=O)Nc1cc2cc(NS(=O)(=O)c3cc(C(F)(F)F)cc(C(F)(F)F)c3)ccc2oc1=O	> 100 µM	> 100 µM	96.6 µM	> 100 µM	> 100 µM	> 100 µM	> 100 µM	> 100 µM	> 100 µM	> 100 µM	–	–	–	–	–	–	–	–	–	–
COc1cccc2ccc3c(c12)C(=O)OC31CCc2c(C)cccc21 (stereo not given)	> 46.4 µM	> 100 µM	> 100 µM	> 100 µM	> 100 µM	> 46.4 µM	> 31.6 µM	> 46.4 µM	26.3 µM	89.5 µM	–	–	–	–	–	–	–	–	–	–
C=C1C(=O)O[C@H]2[C@H]1CC/C(COC(=O)/C=C/c1c[nH]c3ccccc13)=C\CC[C@@]1(C)O[C@@H]21	0.425 µM	0.709 µM	0.941 µM	12.2 µM	1.43 µM	2.16 µM	0.702 µM	0.528 µM	0.294 µM	> 100 µM	0.181 µM	0.279 µM	0.261 µM	0.357 µM	0.393 µM	0.829 µM	0.23 µM	0.212 µM	0.157 µM	0.273 µM
N#CC1CCc2c(c(-c3cn[nH]c3C(F)(F)F)nc3c(F)cc4[nH]ncc4c23)C1 (stereo not given)	> 100 µM	57.9 µM	15.4 µM	> 100 µM	80.3 µM	33.7 µM	> 100 µM	> 100 µM	36.6 µM	> 100 µM	53.1 µM	6.28 µM	3.43 µM	> 100 µM	9.06 µM	6.09 µM	16 µM	15.1 µM	9.64 µM	9.53 µM
N#Cc1ncc(N2C(=O)C3(CCC3)N(c3ccc(OC4CCNCC4)nc3)C2=S)cc1C(F)(F)F	27.8 µM	39.1 µM	30 µM	81.9 µM	41.1 µM	67.4 µM	34 µM	48.7 µM	23.3 µM	34.4 µM	13.1 µM	17.9 µM	15.4 µM	25.2 µM	18.8 µM	25.2 µM	15.7 µM	20.2 µM	11 µM	5.84 µM
COc1ccc(S(=O)(=O)n2c3ccccc3n3ncc(-c4nnc(C)o4)c23)cc1	> 75.8 µM	> 100 µM	7.92 µM	> 48.1 µM	> 75.3 µM	> 85.5 µM	> 69.2 µM	> 65.5 µM	21.7 µM	> 100 µM	0.424 µM	25.4 µM	0.361 µM	0.391 µM	0.916 µM	0.566 µM	10.8 µM	0.473 µM	0.474 µM	0.314 µM
CCN(CC)CCOc1nc2cc(OC)c(OC)cc2c2c1-c1ccc(OC)cc1C2=O	3.78 µM	29.6 µM	23.6 µM	29.8 µM	18.3 µM	22.2 µM	35.1 µM	18.7 µM	14.2 µM	5.01 µM	1.79 µM	16.1 µM	8.62 µM	13.2 µM	5.56 µM	10 µM	13.6 µM	2.42 µM	1.77 µM	2.06 µM
Cc1nn2c(/C=C3\C(=O)Nc4ccccc43)c(C)nc2s1	> 100 µM	> 100 µM	> 100 µM	99 µM	> 100 µM	> 100 µM	> 100 µM	> 100 µM	> 100 µM	> 100 µM	17.1 µM	88.7 µM	49.8 µM	6.3 µM	75.8 µM	15.7 µM	> 100 µM	71.9 µM	70 µM	6.71 µM
CCC(=O)OC1=CN2C(=NC(c3ccc(N)cc3)=CC2c2cc(OC)c(OC)c(OC)c2)S1 (stereo not given)	29.6 µM	16.1 µM	6.01 µM	> 100 µM	13.1 µM	15.1 µM	> 100 µM	13.8 µM	13.6 µM	> 100 µM	2.47 µM	4 µM	2.12 µM	3.73 µM	3.58 µM	4.79 µM	7.47 µM	3.49 µM	3.15 µM	3.47 µM
O=C(O)c1cc2c(c3ccsc13)-c1ccccc1CC2	> 100 µM	98.9 µM	> 100 µM	> 100 µM	> 100 µM	> 100 µM	> 100 µM	> 100 µM	79.5 µM	> 100 µM	39 µM	30.3 µM	36.5 µM	33.7 µM	44.2 µM	31.8 µM	34.8 µM	36.8 µM	29.3 µM	40.6 µM
COc1ccc(/C=C/c2cnc3ccccc3n2)cc1OC	> 100 µM	> 100 µM	> 100 µM	> 100 µM	> 100 µM	> 100 µM	> 100 µM	> 100 µM	> 100 µM	> 100 µM	–	–	–	–	–	–	–	–	–	–
Cc1cc(S(=O)(=O)Nc2nc3cc(-c4ccsc4)sc3c(=O)n2N)c(S)cc1Cl	> 100 µM	> 100 µM	> 100 µM	> 100 µM	> 100 µM	> 100 µM	> 100 µM	> 100 µM	> 100 µM	> 100 µM	59.2 µM	> 100 µM	67.4 µM	50.6 µM	> 100 µM	50 µM	49.7 µM	34.1 µM	> 100 µM	52 µM
